Laboratory results: patent US12421254B2, “KRAS modulators and uses thereof” (Quanta Therapeutics, Inc., priority 2023, dated 2025)
Read-outs that look alike come from different tables or passages of the source.

What was measured:
[1] = molecular target: GST-tagged KRAS-G12V (2-169) (Homo sapiens, UniProt P01116, G12V); test: Nucleotide exchange assay (NEA), SOS-mediated, HTRF, KRAS G12V; format: biochemical; conditions: Table 4; IC50 extracted at 90 min; 80 nM SOS
Method in brief: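 GST-KRAS-G12V (2-169), 0.25 nM, pre-incubated 1 h at RT with compound, then SOS1cat (564-1049) 80 nM and GTP-DY-647P1 150 nM added in HEPES pH 7.3 buffer with MgCl2 and DTT. HTRF via anti-GST Tb cryptate read over 90 min; IC50 from 4-parameter fit at 90 min, blanked to no-SOS reactions.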

[2] = molecular target: T1, NRAS/RAF1 (Homo sapiens, UniProt P01111); test: Protein-protein interaction (PPI) HTRF assay w.t. NRAS/RAF1; format: binding; conditions: Table 3; wt NRAS/RAF1
T1 construct: (1-169); His6-SUMO (N, cleaved yes)
T1 sequence (P01111 with tags, fused parts or gaps): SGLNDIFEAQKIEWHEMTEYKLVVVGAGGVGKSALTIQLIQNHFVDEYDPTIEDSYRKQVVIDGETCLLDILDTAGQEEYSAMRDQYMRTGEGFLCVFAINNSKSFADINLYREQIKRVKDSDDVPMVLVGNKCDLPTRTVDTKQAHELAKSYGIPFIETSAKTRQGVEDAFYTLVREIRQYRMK
Protocol: (§1) When RAS proteins are in the active GTP-bound conformation, they bind the effector protein RAF1 at the N-terminus Ras-binding domain (RBD, residues 52-131) (Tran, et al., 2021). Homogenous time resolved fluorescence (HTRF) was used to monitor the interaction between wt or mutant KRAS and RAF1 or wt NRAS and RAF1. Compounds were assayed in the presence of KRAS G12D/V and RAF1 versus wt KRAS to assess activity against mutant and w.t. KRAS. Similarly, compounds were then assayed in the presence of w.t. NRAS and RAF1 to assess RAS isoform selectivity. In all assay formats, His-tagged RAF1 protein was incubated with the HTRF donor, anti-6His Tb Cryptate gold (Cisbio 61DB10RDF), and biotinylated RAS proteins were incubated with the HTRF acceptor, streptavidin-d2 (CisBio 610SADLA). The intensity of the fluorescence signal emitted is proportional to binding between the two proteins. The donor solution was prepared by mixing 16 nM His-tagged RAF1 in protein dilution buffer with 1:100 anti-6His Tb cryptate in PPI-Terbium detection buffer. 16 nM biotinylated RAS protein was diluted into protein dilution buffer (50 mM Tris-HCl pH 7.5, 150 mM NaCl, 0.1 mM MgCl2, 1 mM TCEP, 0.005% Tween20) and mixed with 1:2000 Streptavidin-d2 diluted in PPI-Terbium detection buffer (CisBio 61DB10RDF). 50× compound in DMSO was mixed with 16 nM KRAS-acceptor solution and incubated for 30 minutes at room temperature. After compound pre-incubation with KRAS, the RAF1 donor solution was added to the KRAS-acceptor solution and incubated for 1 hour at room temperature. The fluorescence signal emitted was monitored at 665 nm and 615 nm using an Envision multimode plate reader. The HTRF ratio (665/615) was calculated and normalized to 0% inhibition in the absence of compound and 100% inhibition in the presence of untagged RAF1 protein. PPI KRAS G12D/RAF1, KRAS G12V/RAF1, w.t. KRAS/RAF1 and NRAS/RAF1 IC50 (uM) values of selected compounds are depicted in Table 3 and Table 4 with compounds having a value <0.1 uM as ++++; ≥0.1 uM to 1 uM as +++; ≥1 uM to 10 uM as ++; ≥10 uM to 100 uM as +; and ≥100 uM as NA.

[3] = molecular target: GST-tagged KRAS-G12D (2-169) (Homo sapiens, UniProt P01116, G12D); test: Nucleotide exchange assay (NEA), SOS-mediated, HTRF, KRAS G12D; format: biochemical; conditions: IC50 extracted at 30 min, 20 nM SOScat
Sequence of GST-tagged KRAS-G12D (2-169) (P01116 2-169 isoform P01116-2 G12D): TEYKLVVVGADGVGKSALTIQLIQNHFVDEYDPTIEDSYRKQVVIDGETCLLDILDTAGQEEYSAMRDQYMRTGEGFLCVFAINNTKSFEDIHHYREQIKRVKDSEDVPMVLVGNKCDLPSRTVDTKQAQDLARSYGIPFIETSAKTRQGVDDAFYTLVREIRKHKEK
Method in brief: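 Compound preincubated 1 h at RT with 0.25 nM GST-KRAS-G12D (2-169) and anti-GST Tb donor, then 20 nM SOS1cat (564-1049) and 150 nM GTP-DY-647P1 added; pH 7.3 HEPES buffer with MgCl2 and DTT. HTRF monitored at RT; % inhibition versus DMSO and no-SOS blank, 4-parameter IC50 taken at 30 min.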

[4] = molecular target: T2, KRAS G12V/RAF1 (Homo sapiens, UniProt P01116, G12V); test: Protein-protein interaction (PPI) HTRF assay KRAS G12V/RAF1; format: binding; conditions: Table 3
T2 construct: KRAS (1-169) proteins were expressed in BL21 (DE3)-CodonPlus E. coli; His6-MBP (N, cleaved yes)
T2 sequence (P01116 with tags, fused parts or gaps isoform P01116-2 G12V): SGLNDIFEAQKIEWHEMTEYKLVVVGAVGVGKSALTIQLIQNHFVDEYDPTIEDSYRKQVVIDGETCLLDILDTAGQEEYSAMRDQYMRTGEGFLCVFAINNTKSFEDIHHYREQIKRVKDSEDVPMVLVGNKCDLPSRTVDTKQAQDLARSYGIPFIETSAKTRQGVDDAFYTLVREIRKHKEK
Protocol: as §1

[5] = Table 2, read-out: NEA-G12D (uM) IC50
[6] = Table 4, read-out: NEA G12D IC50

Sequence of GST-tagged KRAS-G12V (2-169) (P01116 2-169 isoform P01116-2 G12V): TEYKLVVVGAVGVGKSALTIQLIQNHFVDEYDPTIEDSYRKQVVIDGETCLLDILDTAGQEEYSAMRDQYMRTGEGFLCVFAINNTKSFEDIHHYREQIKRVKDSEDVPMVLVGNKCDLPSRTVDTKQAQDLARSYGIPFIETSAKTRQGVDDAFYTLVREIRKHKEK

## N#Cc1c(N)sc2c1C1(CC2)CN(c2nc(OCC34CCCN3CC(F)C4)nc(N3CC4CCC(C3)N4)n2)C1 [Compound 1, 2-amino-1′-[4-(3,8-diazabicyclo[3.2.1]octan-3-yl)-6-[[(2R,8S)-2-fluoro-1,2,3,5,6,7-hexahydropyrrolizin-8-yl]methoxy]-1,3,5-triazin-2-yl]spiro[5,6-dihydrocyclopenta[b]thiophene-4,3′-azetidine]-3-carbonitrile]
[1]
  IC50: 10 to 100 nM
[2]
  IC50: > 100 µM
[3]; [5]
  IC50: < 0.01 µM
[3]; [6]
  IC50: < 0.01 µM
[4]
  IC50: 0.1 to 1 µM

## N#Cc1c(N)sc2c1C1(CC2)CN(c2nc(OCC3(CN4CCOCC4)CC3)nc(N3C[C@H]4CC[C@@H](C3)N4)n2)C1 [Compound 2, 2-amino-1′-[4-[[1-(morpholinomethyl)cyclopropyl]methoxy]-6-[(1R,5S)-3,8-diazabicyclo[3.2.1]octan-3-yl]-1,3,5-triazin-2-yl]spiro[5,6-dihydrocyclopenta[b]thiophene-4,3′-azetidine]-3-carbonitrile]
[1]
  IC50: 100 to 1000 nM
[2]
  IC50: > 100 µM
[3]; [5]
  IC50: < 0.01 µM
[3]; [6]
  IC50: < 0.01 µM
[4]
  IC50: 1 to 10 µM

## N#Cc1c(N)sc2c1C1(CCC2)CN(c2nc(OCC3(CN4CCOCC4)CC3)nc(N3C[C@H]4CC[C@@H](C3)N4)n2)C1 [Compound 3, 2-amino-1′-[4-[(1R,5S)-3,8-diazabicyclo[3.2.1]octan-3-yl]-6-[[1-(morpholinomethyl)cyclopropyl]methoxy]-1,3,5-triazin-2-yl]spiro[6,7-dihydro-5H-benzothiophene-4,3′-azetidine]-3-carbonitrile]
[1]
  IC50: 100 to 1000 nM
[2]
  IC50: > 100 µM
[3]; [5]
  IC50: < 0.01 µM
[3]; [6]
  IC50: < 0.01 µM
[4]
  IC50: 10 to 100 µM

## N#Cc1c(N)sc2c1C1(CC2)CN(c2nc(OCC3(CN4CCOCC4)CC3)nc(N3CCCC4(C3)NC(=O)NC4=O)n2)C1 (centres unmarked) [Compound 7, 2-amino-1′-[4-(2,4-dioxo-1,3,9-triazaspiro[4.5]decan-9-yl)-6-[[1-(morpholinomethyl)cyclopropyl]methoxy]-1,3,5-triazin-2-yl]spiro[5,6-dihydrocyclopenta[b]thiophene-4,3′-azetidine]-3-carbonitrile]
[1]
  IC50: < 10 nM
[2]
  IC50: > 100 µM
[3]; [5]
  IC50: < 0.01 µM
[3]; [6]
  IC50: < 0.01 µM
[4]
  IC50: 0.1 to 1 µM

## C[C@@]1(O)CCCN(c2nc(OC[C@@]34CCCN3C[C@H](F)C4)nc(N3CC4(CCc5sc(N)c(C#N)c54)C3)n2)C1 [Compound 10, 2-amino-1′-[4-[[(2R,8S)-2-fluoro-1,2,3,5,6,7-hexahydropyrrolizin-8-yl]methoxy]-6-[(3R)-3-hydroxy-3-methyl-1-piperidyl]-1,3,5-triazin-2-yl]spiro[5,6-dihydrocyclopenta[b]thiophene-4,3′-azetidine]-3-carbonitrile]
[1]
  IC50: < 10 nM
[2]
  IC50: > 100 µM
[3]; [5]
  IC50: < 0.01 µM
[3]; [6]
  IC50: < 0.01 µM
[4]
  IC50: 1 to 10 µM

## N#Cc1c(N)sc2c1C1(CC2)CN(c2nc(OC[C@@]34CCCN3C[C@H](F)C4)nc(N3CCCC(C#N)C3)n2)C1 (stereo partly drawn) [Compound 13, 2-amino-1′-[4-(3-cyano-1-piperidyl)-6-[[(2R,8S)-2-fluoro-1,2,3,5,6,7-hexahydropyrrolizin-8-yl]methoxy]-1,3,5-triazin-2-yl]spiro[5,6-dihydrocyclopenta[b]thiophene-4,3′-azetidine]-3-carbonitrile]
[1]
  IC50: 10 to 100 nM
[3]; [5]
  IC50: 0.01 to 0.1 µM
[3]; [6]
  IC50: 0.01 to 0.1 µM
[4]
  IC50: 1 to 10 µM
